Laboratory results published in patent US9656991B2, “Inhibitors of glutaminyl cyclase” (PROBIODRUG AG, priority 2007, dated 2017).

The compounds below were run against glutaminyl cyclase (QC) (Homo sapiens (Human), UniProt Q16769). Conditions: QC inhibition, 30° C.
Chain of glutaminyl cyclase (QC) (Q16769 29-361): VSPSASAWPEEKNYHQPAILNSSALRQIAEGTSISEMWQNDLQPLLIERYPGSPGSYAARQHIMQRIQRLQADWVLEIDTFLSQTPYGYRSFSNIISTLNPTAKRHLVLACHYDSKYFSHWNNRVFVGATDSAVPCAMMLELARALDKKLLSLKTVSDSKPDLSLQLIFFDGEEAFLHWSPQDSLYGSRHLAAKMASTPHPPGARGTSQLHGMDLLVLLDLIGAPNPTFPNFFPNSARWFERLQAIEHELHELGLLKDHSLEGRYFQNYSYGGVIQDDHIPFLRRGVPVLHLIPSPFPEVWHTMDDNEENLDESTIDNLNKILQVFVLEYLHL
Protocol: All measurements were performed with a BioAssay Reader HTS-7000Plus for microplates (Perkin Elmer) at 30° C. QC activity was evaluated fluorometrically using H-Gln-βNA. The samples consisted of 0.2 mM fluorogenic substrate, 0.25 U pyroglutamyl aminopeptidase (Unizyme, Hørsholm, Denmark) in 0.2 M Tris/HCl, pH 8.0 containing 20 mM EDTA and an appropriately diluted aliquot of QC in a final volume of 250 μl. Excitation/emission wavelengths were 320/410 nm. The assay reactions were initiated by addition of glutaminyl cyclase. QC activity was determined from a standard curve of β-naphthylamine under assay conditions. One unit is defined as the amount of QC catalyzing the formation of 1 μmol pGlu-βNA from H-Gln-βNA per minute under the described conditions.
In a second fluorometric assay, QC was activity determined using H-Gln-AMC as substrate. Reactions were carried out at 30° C. utilizing the NOVOStar reader for microplates (BMG labtechnologies). The samples consisted of varying concentrations of the fluorogenic substrate, 0.1 U pyroglutamyl aminopeptidase (Qiagen) in 0.05 M Tris/HCl, pH 8.0 containing 5 mM EDTA and an appropriately diluted aliquot of QC in a final volume of 250 μl. Excitation/emission wavelengths were 380/460 nm. The assay reactions were initiated by addition of glutaminyl cyclase. […] The kinetic data were evaluated using GraFit software.
Samples consisted of the respective QC substrate, 0.3 mM NADH, 14 mM α-Ketoglutaric acid and 30 U/ml glutamate dehydrogenase in a final volume of 250 μl. […] All samples were measured at 30° C., using either the [sequence]luor Plus or the Sunrise (both from TECAN) reader for microplates. Kinetic data was evaluated using GraFit software.
For inhibitor testing, the sample composition was the same as described above, except of the putative inhibitory compound added. For a rapid test of QC-inhibition, samples contained 4 mM of the respective inhibitor and a substrate concentration at 1 KM. For detailed investigations of the inhibition and determination of Ki-values, influence of the inhibitor on the auxiliary enzymes was investigated first. […] The inhibitory constant was evaluated by fitting the set of progress curves to the general equation for competitive inhibition using GraFit software.

IC50 [µM]	Structure (SMILES)
258	S=C(Nc1ccc2[nH]cnc2c1)N1CCCC1 [Example 67, N-(1H-benzo[d]imidazol-5-yl)pyrrolidine-1-carbothioamide]
323	Fc1ccc(N2CCN(C(=S)Nc3ccc4[nH]cnc4c3)CC2)cc1 [Example 70, N-(1H-benzo[d]imidazol-5-yl)-4-(4-fluorophenyl)piperazine-1-carbo-thioamide]

More lines, now with the values behind:

Structure (SMILES)	IC50 [µM]
Fc1ccc(C2CCCN2C(=S)Nc2ccc3[nH]cnc3c2)cc1 (stereo not drawn) [Example 66, N-(1H-benzo[d]imidazol-5-yl)-2-(4-fluorophenyl)pyrrolidine-1-carbo-thioamide]	128
S=C(Nc1ccc2[nH]cnc2c1)N1CCCCC1 [Example 69, N-(1H-benzo[d]imidazol-5-yl)piperidine-1-carbothioamide]	172
S=C(Nc1ccc2[nH]cnc2c1)N1CCOCC1 [Example 68, N-(1H-benzo[d]imidazol-5-yl)morpholine-4-carbothioamide]	169
CN(Cc1ccc(F)cc1)C(=S)Nc1ccc2[nH]cnc2c1 [Example 65, 1-(4-fluorobenzyl)-3-(1H-benzo[d]imidazol-5-yl)-1-methylthiourea]	404
